Laboratory results taken from US5206250A, “Bis-naphthalimides containing amide and thioamide linkers as anticancer agents” (Du Pont Merck Pharmaceutical Company, priority 1991, dated 1993).
In brackets after ≈: the same amount, converted by molar mass.

Test system: L1210 cells
Experiment: In vitro Growth Inhibitory Activity Determination (L1210 cells, MTT)
Type: cell-based
Details: Mus musculus, 72 h, 3 days incubation at 37° C., dose of drug that inhibits the growth of cells to one half that of the control cells, read-out: ID50 (the source's name)
Experimental: L1210 cells were maintained in RPMI=1640 a medium supplemented with 10% heat inactivated fetal bovine serum and […] mercaptomethanol/liter medium (RPMI-L).
Exponential growing L1210 cells (1×10^3 cells) in 0.1 mL medium were seeded on day 0 in a 96-well microtiter plate. On day 1, 0.1 mL aliquot of medium containing graded concentration of test analogs was added to the initial volume. After incubation at 37° C. in a humidified incubator for 3 days, the plates were centrifuged briefly and […] of the growth medium was removed. Cell cultures were incubated with […] of 3-(4, 5-dimethylthiazol-2yl)-2,5- diphenyltetrazolium bromide (MTT; 1 mg/ml in Dulbecco's phosphate buffer saline) for 4 hours at 37° C. The resulting purple formazan precipitate was solubilized with […] of 0.04 N HCl in isopropyl alcohol. Absorbance was read in a Titertek Multiskan MCC scaning well spectrophotometer (Flow Laboratories) at a test wavelength of 570 nm and a reference wavelength of 630 nm.
The absorbances were stored on a floppy disk on a IBM-XT and uploaded on to a VAX computer.
Y=((AM - Ao)/(1+(X/ID50)n))+Ao
Am=absorbance of the control cells
Ao=absorbance of the cells in the presence of highest drug conc.
ID50 =dose of drug that inhibits the growth of cells to one half that of the control cells.

First: C[C@@H](C(=O)NCCNC(=O)[C@H](C)N1C(=O)c2cccc3cc([N+](=O)[O-])cc(c23)C1=O)N1C(=O)c2cccc3cc([N+](=O)[O-])cc(c23)C1=O [Example 1, (S,S)-N,N'-1,2-ethanediylbis[α-methyl-5-nitro-1,3-dioxo-1H-benz[de]isoquinoline-2(3H)-acetamide]]
Second: C[C@H](C(=O)NCCNC(=O)[C@@H](C)N1C(=O)c2cccc3cc([N+](=O)[O-])cc(c23)C1=O)N1C(=O)c2cccc3cc([N+](=O)[O-])cc(c23)C1=O [Example 2, (R,R)-N,N'-1,2-ethanediylbis[α-methyl-5-nitro-1,3-dioxo-1H-benz[de]isoquinoline-2(3H)-acetamide]]
The IC50 of the first is 18-fold higher: 0.61 µg/mL (≈ 0.935 µM) for the first, 0.033 µg/mL (≈ 0.0506 µM) for the second.

First: O=C(CCN1C(=O)c2cccc3cc([N+](=O)[O-])cc(c23)C1=O)NCCNC(=O)CCN1C(=O)c2cccc3cc([N+](=O)[O-])cc(c23)C1=O [Example 9]
Second: O=C(CCN1C(=O)c2cccc3cc([N+](=O)[O-])cc(c23)C1=O)NCCCNC(=O)CCN1C(=O)c2cccc3cc([N+](=O)[O-])cc(c23)C1=O [Example 8]
The IC50 of the first is lower: 15.1 µg/mL (≈ 23.1 µM) for the first, over 20 µg/mL for the second.

Compared with `C[C@@H](C(=S)NCCNC(=S)[C@H](C)N1C(=O)c2cccc3cc([N+](=O)[O-])cc(c23)C1=O)N1C(=O)c2cccc3cc([N+](=O)[O-])cc(c23)C1=O` [Example 6, (S,S)-N,N'-1,2-ethanediylbis[α-methyl-5-nitro-1,3-dioxo-1H-benz[de]isoquinoline-2(3H)ethanethioamide]], `C[C@@H](C(=O)NCCCNC(=O)[C@H](C)N1C(=O)c2cccc3cc([N+](=O)[O-])cc(c23)C1=O)N1C(=O)c2cccc3cc([N+](=O)[O-])cc(c23)C1=O` [Example 5] is 7.4-fold lower in IC50: 0.184 µg/mL (≈ 0.269 µM) for the first, 0.025 µg/mL (≈ 0.0375 µM) for the second.

Compared with `C[C@@H](C(=O)NCCCCNC(=O)[C@H](C)N1C(=O)c2cccc3cc([N+](=O)[O-])cc(c23)C1=O)N1C(=O)c2cccc3cc([N+](=O)[O-])cc(c23)C1=O` [Example 4], `CSCC[C@@H](C(=O)NCCCNC(=O)[C@H](CCSC)N1C(=O)c2cccc3cc([N+](=O)[O-])cc(c23)C1=O)N1C(=O)c2cccc3cc([N+](=O)[O-])cc(c23)C1=O` [Example 3] is 3-fold lower in IC50: 0.36 µg/mL (≈ 0.529 µM) for the first, 0.12 µg/mL (≈ 0.153 µM) for the second.

`O=C(CCN1C(=O)c2cccc3cc([N+](=O)[O-])cc(c23)C1=O)NCCCCNC(=O)CCN1C(=O)c2cccc3cc([N+](=O)[O-])cc(c23)C1=O` [Example 7] was tested, and the IC50 was 19 µg/mL (≈ 27.9 µM).
